Results on one cell line are retold here after the supplement of paper PMC10307832.

What all share (test): relative viability (nuclei count vs DMSO), 5 days (fraction); higher = more cells survive
Compound in experiment [1]: C1=CC2=C(C=C(C(=C2N=C1)O)N=NC3=CC4=C(C=C3)C=C(C=C4)S(=O)(=O)O)S(=O)(=O)O + O=C(CCCCCCC(=O)Nc1ccccc1)NO [Vorinostat] (partner 1 µM)
Summed up: (§1)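 Relative viability equals treated-well nuclei counts divided by vehicle-well nuclei counts. Counts came from 4× images of lung cancer cell lines grown in 1536-well plates for 5 days after pin-tool dosing on the day after seeding. Dosing used one drug alone or a fixed anchor-drug dose plus five library-drug doses (not always all listed) in √10 steps, and values are medians of duplicate plates.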

Compound in the experiment “AT-7519 + OSI-027”: O=C(NC1CCNCC1)c1n[nH]cc1NC(=O)c1c(Cl)cccc1Cl [AT-7519] + COc1cccc2cc(-c3nc([C@H]4CC[C@H](C(=O)O)CC4)n4ncnc(N)c34)[nH]c12 [OSI-027] (partner 0.5 µM)
In short, it runs like this: as §1

Compound in experiment [2]: C1=CC2=C(C=C(C(=C2N=C1)O)N=NC3=CC4=C(C=C3)C=C(C=C4)S(=O)(=O)O)S(=O)(=O)O + CC(C)C[C@H](NC(=O)[C@H](Cc1ccccc1)NC(=O)c1cnccn1)B(O)O [Bortezomib] (partner 0.002 µM)
Summed up:
as §1

Compound in the experiment “AT-7519 + Decitabine”: O=C(NC1CCNCC1)c1n[nH]cc1NC(=O)c1c(Cl)cccc1Cl [AT-7519] + Nc1ncn([C@H]2C[C@H](O)[C@@H](CO)O2)c(=O)n1 [Decitabine] (partner 2 µM)
Summed up:
as §1

In the case of UMC-11, the relative viability stood at 0.462 in experiment [1] (first compound 0.08 µM); 0.367 in experiment [1] (first compound 0.253 µM); 0.475 in experiment [1] (first compound 0.8 µM); 0.403 in experiment [1] (first compound 2.53 µM); 0.392 in experiment [1] (first compound 8 µM); 0.442 in the experiment with AT-7519 + OSI-027 (first compound 0.01 µM). Also, the relative viability came to 0.432 with AT-7519 + OSI-027 (first compound 0.03162 µM); 0.404 with AT-7519 + OSI-027 (first compound 0.3162 µM); 0.27 in the experiment with AT-7519 + OSI-027 (first compound 1 µM); 0.84 in experiment [2] (first compound 0.08 µM); 0.783 in experiment [2] (first compound 0.253 µM); 0.708 in experiment [2] (first compound 0.8 µM). Also, the relative viability in experiment [2] (first compound 2.53 µM) came to 0.633; in experiment [2] (first compound 8 µM), 0.606; with AT-7519 + Decitabine (first compound 0.01 µM) it was 0.675; in the experiment with AT-7519 + Decitabine (first compound 0.03162 µM), 0.551; in the experiment with AT-7519 + Decitabine (first compound 0.3162 µM), 0.514; with AT-7519 + Decitabine (first compound 1 µM), 0.306.
